Test results taken from patent US20070275967A1, “Pyrazolinols” (BAYER CROPSCIENCE AKTIENGESELLSCHAFT, priority 2003, published 2007).

Assay: logP determination by HPLC on reversed-phase column (EEC Directive 79/831 Annex V.A8)
Type: physicochemical
Settings: acidic range (pH 2.3), marked a); 0.1% aqueous phosphoric acid/acetonitrile gradient; reversed-phase C 18; 43° C.
Description: The logP values given in the table were determined in accordance with EEC Directive 79/831 Annex V.A8 by HPLC (High Performance Liquid Chromatography) on a reversed-phase column (C 18). Temperature: 43° C. (a) Mobile phases for the determination in the acidic range (pH 2.3): 0.1% aqueous phosphoric acid, acetonitrile; linear gradient from 10% acetonitrile to 90% acetonitrile—the corresponding measurement results in table 1 are marked a). (b) Mobile phases for the determination in the neutral range (pH 7.5): 0.01-molar aqueous phosphate buffer solution, acetonitrile; linear gradient from 10% acetonitrile to 90% acetonitrile—the corresponding measurement results in table 1 are marked b). Calibration was carried out using unbranched alkan-2-ones (having 3 to 16 carbon atoms) with known logP values (determination of the logP values by the retention times using linear interpolation between two successive alkanones).

Row | SMILES | logP
1 | CC(C)CC1=NN(C(=O)Nc2ccccc2)C(O)(C(F)(F)F)C1 (racemic) [Example 3] | logP = 3.72^a)
2 | CC(C)CC1=NN(C(=O)Nc2ccc(Cl)c(Cl)c2)C(O)(C(F)(F)F)C1 (racemic) [Example 4] | logP = 4.63^a)
3 | CC(C)CC1=NN(C(=O)Nc2ccc(Cl)cc2)C(O)(C(F)(F)F)C1 (racemic) [Example 5] | logP = 4.18^a)
4 | CC(C)CC1=NN(C(=S)Nc2ccccc2)C(O)(C(F)(F)F)C1 (racemic) [Example 7] | logP = 4.31^a)
5 | CC(C)CC1=NN(C(=S)Nc2ccccc2F)C(O)(C(F)(F)F)C1 (racemic) [Example 11] | logP = 4.23^a)
6 | CCC1=NN(C(=O)Nc2ccc(Cl)cc2)C(O)(C(F)(F)F)C1 (racemic) [Example 13] | logP = 3.41^a)
7 | CCC1=NN(C(=S)Nc2ccc(C(C)(C)C)cc2)C(O)(C(F)(F)F)C1 (racemic) [Example 16] | logP = 4.84^a)
8 | CC(C)C1=NN(C(=O)Nc2ccc(OC(F)(F)F)cc2)C(O)(C(F)(F)F)C1 (racemic) [Example 17] | logP = 4.09^a)
9 | CC(C)C1=NN(C(=O)Nc2ccc(Cl)cc2)C(O)(C(F)(F)F)C1 (racemic) [Example 18] | logP = 3.79^a)
10 | CC(C)C1=NN(C(=S)Nc2ccc(C(C)(C)C)cc2)C(O)(C(F)(F)F)C1 (racemic) [Example 21] | logP = 5.18^a)
11 | COc1ccc(NC(=S)N2N=C(CC(C)C)CC2(O)C(F)(F)F)cc1 (racemic) [Example 23] | logP = 4.17^a)
12 | CC(C)CC1=NN(C(=S)Nc2ccc(C(C)(C)C)cc2)C(O)(C(F)(F)F)C1 (racemic) [Example 25] | logP = 5.50^a)
13 | CC(C)C1=NN(C(=O)Nc2ccccc2)C(O)(C(F)(F)F)C1 (racemic) [Example 28] | logP = 3.32^a)
14 | CC(C)C1=NN(C(=S)Nc2cccnc2)C(O)(C(F)(F)F)C1 (racemic) [Example 35] | logP = 1.96^a)
15 | CC(C)C1=NN(C(=S)Nc2ccc(OC(F)(F)F)cc2)C(O)(C(F)(F)F)C1 (racemic) [Example 36] | logP = 4.61^a)
16 | CC(C)C1=NN(C(=O)Nc2ccccc2Cl)C(O)(C(F)(F)F)C1 (racemic) [Example 37] | logP = 4.10^a)
17 | CCC1=NN(C(=S)Nc2ccccc2)C(O)(C(F)(F)F)C1 (racemic) [Example 38] | logP = 3.57^a)
18 | CCC1=NN(C(=O)Nc2ccccc2)C(O)(C(F)(F)F)C1 (racemic) [Example 39] | logP = 2.91^a)
19 | CC(C)C1=NN(C(=S)NCc2ccco2)C(O)(C(F)(F)F)C1 (racemic) [Example 41] | logP = 3.78^a)

Row | SMILES | logP
20 | CC(C)C1=NN(C(N)=S)C(O)(C(F)(F)F)C1 (racemic) [Example 45] | logP = 2.47^a)
21 | CC(C)C1=NN(C(=O)Nc2cccnc2)C(O)(C(F)(F)F)C1 (racemic) [Example 47] | logP = 1.15^a)
22 | CC(C)C1=NN(C(=O)Nc2ccccn2)C(O)(C(F)(F)F)C1 (racemic) [Example 48] | logP = 1.78^a)
23 | CCC1=NN(C(=O)Nc2ccc(Cl)cc2)C(O)(C(F)(F)F)C1 (racemic) [Example 49] | logP = 3.43^a)
24 | CCC1=NN(C(=O)Nc2ccc(F)cc2)C(O)(C(F)(F)F)C1 (centres unmarked) [Example 50] | logP = 2.96^a)
25 | CCC1=NN(C(=O)Nc2ccc(C#N)cc2)C(O)(C(F)(F)F)C1 (centres unmarked) [Example 51] | logP = 2.65^a)
26 | O=C(Nc1ccc(OC(F)(F)F)cc1)N1N=C(C2(Cl)CC2)CC1(O)C(F)(F)F (centres unmarked) [Example 52] | logP = 4.07^a)
27 | CCC1=NN(C(=S)Nc2ccc(C(F)(F)F)cc2)C(O)(C(F)(F)F)C1 (centres unmarked) [Example 54] | logP = 4.27^a)
28 | CCC1=NN(C(=S)Nc2ccc(Cl)cc2Cl)C(O)(C(F)(F)F)C1 (centres unmarked) [Example 57] | logP = 4.53^a)
29 | CC(C)(C)C1=NN(C(=O)Nc2ccc(Cl)cc2)C(O)(C(F)(F)F)C1 (centres unmarked) [Example 58] | logP = 4.16^a)
30 | CC(C)(C)C1=NN(C(=O)Nc2ccc(Cl)c(Cl)c2)C(O)(C(F)(F)F)C1 (centres unmarked) [Example 59] | logP = 4.62^a)
31 | CC(C)(C)C1=NN(C(=O)Nc2ccc(C#N)cc2)C(O)(C(F)(F)F)C1 (centres unmarked) [Example 60] | logP = 3.34^a)
32 | COc1ccc(NC(=S)N2N=C(C(C)(C)C)CC2(O)C(F)(F)F)cc1 (centres unmarked) [Example 61] | logP = 3.54^a)
33 | Cc1ccc(NC(=S)N2N=C(C(C)(C)C)CC2(O)C(F)(F)F)cc1 (centres unmarked) [Example 62] | logP = 4.62^a)
34 | CC(C)(C)C1=NN(C(=O)Nc2ccccc2)C(O)(C(F)(F)F)C1 (centres unmarked) [Example 65] | logP = 4.58^a)
35 | CC(C)(C)C1=NN(C(=O)NC2CCCCC2)C(O)(C(F)(F)F)C1 (centres unmarked) [Example 66] | logP = 3.68^a)
36 | CC(C)(C)C1=NN(C(=O)Nc2ccc(OC(F)(F)F)cc2)C(O)(C(F)(F)F)C1 (centres unmarked) [Example 67] | logP = 4.41^a)
37 | CC(C)(C)C1=NN(C(=O)Nc2ccc(Cl)cc2Cl)C(O)(C(F)(F)F)C1 (centres unmarked) [Example 68] | logP = 5.18^a)
38 | CC(C)(C)C1=NN(C(=O)Nc2ccccc2Cl)C(O)(C(F)(F)F)C1 (centres unmarked) [Example 69] | logP = 4.48^a)

Row | SMILES | logP
39 | CC(C)(C)C1=NN(C(=O)NCc2ccc(Cl)cc2)C(O)(C(F)(F)F)C1 (centres unmarked) [Example 71] | logP = 3.94^a)
40 | CC(C)(C)C1=NN(C(=O)NCc2ccccc2Cl)C(O)(C(F)(F)F)C1 (centres unmarked) [Example 72] | logP = 3.97^a)
41 | CCC1=NN(C(=O)Nc2cc(Cl)cc(Cl)c2)C(O)(C(F)(F)F)C1 (centres unmarked) [Example 76] | logP = 4.34^a)
42 | OC1(C(F)(F)F)CC(C2(Cl)CC2)=NN1C(=S)Nc1ccc(C(F)(F)F)cc1 (centres unmarked) [Example 78] | logP = 4.41^a)
43 | OC1(C(F)(F)F)CC(C2(Cl)CC2)=NN1C(=S)Nc1ccc(Cl)cc1 (centres unmarked) [Example 79] | logP = 4.36^a)
44 | O=C(Nc1ccc(Cl)cc1)N1N=C(c2ccco2)CC1(O)C(F)(F)F (centres unmarked) [Example 80] | logP = 3.41^a)
45 | OC1(C(F)(F)F)CC(c2ccco2)=NN1C(=S)Nc1ccc(Cl)cc1 (centres unmarked) [Example 81] | logP = 3.99^a)
46 | O=C(Nc1ccc(Cl)cc1)N1N=C(c2ccccc2)CC1(O)C(F)(F)F (centres unmarked) [Example 82] | logP = 3.97^a)
47 | CCC1=NN(C(=S)Nc2c(F)cccc2F)C(O)(C(F)(F)F)C1 (centres unmarked) [Example 84] | logP = 3.30^a)
48 | CCC1=NN(C(=S)Nc2cc(Cl)ccc2Cl)C(O)(C(F)(F)F)C1 (centres unmarked) [Example 85] | logP = 4.47^a)
49 | CCC1=NN(C(=S)Nc2ccc(OC)cc2)C(O)(C(F)(F)F)C1 (centres unmarked) [Example 86] | logP = 3.47^a)
50 | CCC1=NN(C(=S)Nc2cccc(Cl)c2Cl)C(O)(C(F)(F)F)C1 (centres unmarked) [Example 87] | logP = 4.29^a)
51 | CCC1=NN(C(=S)Nc2ccc(Oc3ccccc3)cc2)C(O)(C(F)(F)F)C1 (centres unmarked) [Example 88] | logP = 4.52^a)
52 | CCC1=NN(C(=S)Nc2c(F)cc(F)cc2F)C(O)(C(F)(F)F)C1 (centres unmarked) [Example 89] | logP = 3.52^a)
53 | CCC1=NN(C(=S)Nc2cc(C(F)(F)F)ccc2Cl)C(O)(C(F)(F)F)C1 (centres unmarked) [Example 90] | logP = 4.51^a)
54 | CCC1=NN(C(=S)Nc2ccccc2OC)C(O)(C(F)(F)F)C1 (centres unmarked) [Example 91] | logP = 3.85^a)
55 | CCC1=NN(C(=S)Nc2cc(Cl)cc(Cl)c2)C(O)(C(F)(F)F)C1 (centres unmarked) [Example 92] | logP = 4.75^a)
56 | CCC1=NN(C(=S)Nc2ccc(F)cc2)C(O)(C(F)(F)F)C1 (centres unmarked) [Example 93] | logP = 3.62^a)
